Patent US8802695B2, “Apoptosis signal-regulating kinase 1 inhibitors” (Takeda Pharmaceutical Company Limited, priority 2010, dated 2014)

What was measured:
ASK1 [1] = target: T1, ASK1 (Homo sapiens (Human), UniProt Q99683); assay: Scintillation assay for inhibitory effect against ASK1 (Example B; myelin basic protein substrate, [γ-32P]ATP); format: biochemical; settings: 2.5 μM ATP solution, read-out: Enzyme Activity B IC50
Source text: (§1) The inhibitory effect of the compound of the invention on ASK1 may be evaluated by evaluating the phosphorylating activity of the enzyme on a known substrate with or without the presence of the test compound. Example B provides such an assay where myelin basic protein (Wako) is used as substrate and detection is by scintillation counting. It should be understood other substrates and detection mechanism may be used. A commercially available a kit, Cisbio's HTRF® KinEASE™ STK kit, has shown to be useful for evaluating ASK1 activity. The assay uses an anti-phosphoseric specific, Eu^3+-Cryptate labeled antibody to mark the phosphorylated product of ASK1 on a biotinylated kinase substrate, and detection is by time resolved fluorescence using XL665 labeled streptavidin. The fluorescence intensity is proportional to the amount of product formation. Example C provides the assay protocol.
Cloning of cDNA encoding human ASK1 was conducted by PCR using primers, 5′-[…] […]-3′ (SEQ ID NO: 1) and 5′-AAAGCGGCCGCTCAA […]-3′ (SEQ ID NO: 2), from human heart cDNA library (Becton, Dickinson and Company). The PCR product was subjected to agarose gel (1%) electrophoresis, a 2.2 kb DNA fragment containing an ASK1 gene was recovered from the gel, and then digested with restriction enzymes, NotI and SalI, and inserted into a plasmid pFASTBAC1 (Invitrogen) to prepare a plasmid pFB-ASK1. The insert was verified by sequencing. Recombinant baculovirus was prepared according to the procedure of the Bac-to-Bac baculovirus expression system (Invitrogen).
Sf-21 cells were seeded to achieve 1×10^6 cells/mL in 100 mL of Sf-900 II SFM medium (Invitrogen) which contains 10% fetal calf serum and then cultured at 27° C. for 24 hrs. To express ASK1 in cells, 0.15 mL of the recombinant baculovirus virus stock was added to cells, and the then cultured for 60 hrs. The cells were separated from the culture solution by centrifugation at 3000 rpm for 10 min and washed once with PBS. The cells were suspended in 10 mL of lysis buffer (25 mM HEPES (pH 7.5), 1% Triton X, 130 mM NaCl, 1 mM EDTA, 1 mM DTT, 25 mM (3-glycerophosphate, Protease inhibitor complete (Roche), 1 mM sodium orthovanadate) and ruptured by four times of treatment with a homogenizer (POLYTRON) at 20000 rpm for 30 seconds. Active ASK1 protein was purified from a supernatant obtained by centrifugal separation at 40000 rpm for 45 min using anti-FLAG M2 Affinity Gel (Sigma).
Scintillation Assay for Measuring the Inhibitory Effect of Exemplified Compounds of the Invention Against ASK1
The test compounds (2.5 μL) dissolved in DMSO were added to wells containing 37.5 μL of the reaction solution (25 mM HEPES (pH 7.5), 10 mM magnesium acetate, 1 mM DTT) including 30 ng of active ASK1 protein and 1 μg of myelin basic protein (Wako), and incubated at room temperature for 5 min. To start the reaction, 10 μL of ATP solution (2.5 μM ATP, 0.1 μCi [γ-^32P]ATP) was added to wells. After incubating at room temperature for 30 min, the reaction was terminated by adding 50 μL of 20% TCA solution. The reaction solution was incubated at 4° C. for 30 min and an acid-insoluble fraction was transferred onto a GF/C filter (Packard) with Cell Harvester (Packard), and washed with 250 mM phosphoric acid. After drying at 45° C. for 60 min., 40 μL of Microscint 0 (Packard) was added and the radioactivity was measured with TopCount (Packard). The concentrations (IC50 value) of the test compounds necessary for 50% inhibition of kinase activity were calculated by PRISM 3.0 (Graphpad Software).
Target sequence in this assay (Q99683 650-1374): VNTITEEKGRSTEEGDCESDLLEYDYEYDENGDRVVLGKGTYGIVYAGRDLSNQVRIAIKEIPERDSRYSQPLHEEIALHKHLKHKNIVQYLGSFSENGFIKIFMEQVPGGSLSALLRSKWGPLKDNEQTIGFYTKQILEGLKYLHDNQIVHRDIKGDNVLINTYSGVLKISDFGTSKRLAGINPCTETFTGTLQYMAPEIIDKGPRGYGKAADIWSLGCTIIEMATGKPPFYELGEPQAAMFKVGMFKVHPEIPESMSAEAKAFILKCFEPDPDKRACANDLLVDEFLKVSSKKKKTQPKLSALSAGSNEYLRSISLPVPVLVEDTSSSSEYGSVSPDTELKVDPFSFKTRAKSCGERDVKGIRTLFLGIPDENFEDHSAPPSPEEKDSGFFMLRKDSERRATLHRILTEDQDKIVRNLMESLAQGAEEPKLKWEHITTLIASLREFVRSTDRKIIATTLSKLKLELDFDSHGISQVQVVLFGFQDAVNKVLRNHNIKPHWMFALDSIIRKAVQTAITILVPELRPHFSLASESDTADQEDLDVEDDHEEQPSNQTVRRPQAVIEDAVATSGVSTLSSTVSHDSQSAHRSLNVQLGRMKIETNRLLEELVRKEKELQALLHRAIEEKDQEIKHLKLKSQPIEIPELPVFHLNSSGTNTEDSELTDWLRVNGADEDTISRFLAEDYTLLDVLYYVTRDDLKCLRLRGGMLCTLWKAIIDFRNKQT

ASK1 [2] = target: T1, ASK1; assay: Homogeneous Time-Resolved Fluorescence (HTRF) assay for inhibitory effect against ASK1 (Example C; KinEASE STK S3 kit); format: biochemical; settings: 25 nM ASK1, 100 μM ATP, read-out: Enzyme Activity C IC50
Source text: as §1
Target sequence in this assay (Q99683 649-946): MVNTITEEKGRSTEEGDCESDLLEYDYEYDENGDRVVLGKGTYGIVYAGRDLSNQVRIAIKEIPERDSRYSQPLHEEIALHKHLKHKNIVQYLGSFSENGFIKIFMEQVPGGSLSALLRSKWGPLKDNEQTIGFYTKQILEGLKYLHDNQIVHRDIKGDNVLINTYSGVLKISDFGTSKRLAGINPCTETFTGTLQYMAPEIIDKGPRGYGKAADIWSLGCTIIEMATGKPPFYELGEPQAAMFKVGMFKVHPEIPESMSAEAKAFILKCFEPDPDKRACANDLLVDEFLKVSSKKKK
Homogeneous Time-Resolved Fluorescence (HTRF) Assay for Measuring the Inhibitory Effect of Exemplified Compounds of the Invention Against ASK1
Recombinant human ASK1 is purchased from Millipore (Cat #14-606). The enzymatic assay of ASK1 is set up by using HTRF® KinEASE™ STK S3 kit, the Universal Assay for Serine/Threonine Kinases kit from CisBio.
The inhibitory properties of compounds to ASK1 may be determined using a white 384-well-plate format under the following reaction conditions: 25 nM ASK1, 1 μM CisBio STK S3-biotion peptide, 100 μM ATP, and 1%-2% DMSO in kinase assay buffer of 50 mM HEPES, pH 7.3, 10 mM NaCl, 10 mM MgCl2, 0.01% Brij35, 0.2 mM EDTA, and 1 mM DTT. Reaction product is determined quantitatively by HTRF after the addition of detection reagent SA-XL665 and STK-antibody-cryptate.
The assay reaction may be initiated as follows: 2 μl of the mixture of 3 μM CisBio STK S3-biotion peptide and 300 μM ATP with 2 μl of test compound (2 fold serial dilutions for 11 data points for each inhibitor) containing 3%-6% DMSO are added to each well of the plate, followed by the addition of 2 μL of 75 nM ASK1 to initiate the reaction (final enzyme concentration was 25 nM for ASK1). The reaction mixture may then be incubated at room temperature for 1 hour, and quenched and developed by the addition of 6 μL of 100-fold diluted STK-antibody-Cryptate and 250 nM SA-XL665 in Cisbio HTRF detection buffer (50 mM HEPES, pH7.0, 0.1% BSA, 0.8 M KF, and 20 mM EDTA). The fluorescence intensity is measured at 620 nm (Cryptate) and 665 nm (XL665) after a 1-2 hour incubation at room temperature. A ratio is calculated (665/620) for each well and is fitted to the standard IC50 curve to determine inhibition constants (IC50).

Row | IC50 (ASK1 [1]) [nM] | melting point [°C] | IC50 (ASK1 [2]) [nM] | SMILES
1 | 9 | 223 to 223.9 | 12 | CCn1cc(Cl)c2cnc(NC(=O)c3ccc([C@](C)(O)CO)cc3)cc21 [Compound 26, (S)—N-(3-chloro-1-ethyl-1H-pyrrolo[3,2-c]pyridin-6-yl)-4-(1,2-dihydroxypropan-2-yl)benzamide]
2 |  | 210 to 212 | 38 | Cn1cc(Cl)c2cnc(NC(=O)c3ccc([C@](C)(O)CO)cc3)cc21 [Compound 29, (S)—N-(3-chloro-1-methyl-1H-pyrrolo[3,2-c]pyridin-6-yl)-4-(1,2-dihydroxypropan-2-yl)benzamide]
3 | 6 | 224.4 to 225.1 | 16 | CCn1cc(Cl)c2cnc(NC(=O)c3ccc([C@@](C)(O)CO)cc3)cc21 [Compound 14, (R)—N-(3-chloro-1-ethyl-1H-pyrrolo[3,2-c]pyridin-6-yl)-4-(1,2-dihydroxypropan-2-yl)benzamide]
